Measured values taken from patent US20260327242A1, “Platform and Scaffold for FAP Targeting Agents” (Erasmus University Medical Center Rotterdam, priority 2022, published 2026).

Legend:
U-87 cells = assay: Cytotoxicity assay in FAP+ U-87 cells (resazurin); assay type: cell-based
Description: In 96-well plates, U-87 cells (3×10^3) were seeded in each well and incubated at 37° C. and 5% CO2 for 24 h. The medium was removed and the wells were washed once with PBS. The cytotoxic drug (positive control) or the eFAP conjugate containing the drug were prepared at various concentrations (i.e., 1, 10, 100, 1000 nM) in DMEM culture medium, supplemented with 2 mM L-glutamine, 10% FBS, 50 units/mL penicillin, and 50 μg/mL streptomycin. Medium was used as a negative control. Cells were incubated with 100 μL of the tested compounds for 1, 24, 48, and 72 h. After incubation, medium was removed and each well was washed once with PBS. Next, 100 μL of 10% resazurin solution in culture medium was added to each well and incubated for 2.5 h. Fluorescence measurements were carried out using a microplate reader at 544 nm excitation and 590 nm emission.

U-87 tumor = assay: Near-infrared fluorescence imaging of U-87 tumor bearing mice; assay type: in vivo, mouse; settings: 2 nmol i.v., imaging 1 h, excised tumors 2.5 h
From the text: Six-week-old male Balb/c nu/nu-specific and opportunistic pathogen-tree (SOPF) mice were housed in individually ventilated cages, with 4 mice per cage. Upon arrival, mice were acclimated for 1 week, with access to food and water ad libitum. Mice were subcutaneously inoculated on the right shoulder with U-87 or HT-1080.hFAP cells (1×10^6 cells). Xenografts were allowed to grow until they reached an appropriate size at the start of the studies. All animal experiments were approved by the Animal Welfare Committee of the Erasmus MC and were conducted in agreement with institutional guidelines (license number: AVD101002017867).
Evaluation of targeting performance of eFAP-17 in near-infrared fluorescence imaging of U-87 tumor bearing mice after intravenous injection of 2 nmol of the probe are given in FIG. 9 showing A) NIRF imaging of U-87 tumor bearing mice at 1 h after intravenous injection of 2 nmol of CW800 (left, negative control) or eFAP-17 (right) and B) image of excised tumors 2.5 h post administration of CW800 (left) or eFAP-17 (right).

mouse FAP (mFAP) = target: T1, mouse FAP (mFAP) (Mus musculus, UniProt P97321); assay: In vitro inhibition assay on mouse FAP (Z-GP-AMC substrate); assay type: biochemical; settings: 20 μM Z-GP-AMC, 20 nM FAP, pH 7.4, room temperature
T1 sequence (P97321 26-761 limits assumed): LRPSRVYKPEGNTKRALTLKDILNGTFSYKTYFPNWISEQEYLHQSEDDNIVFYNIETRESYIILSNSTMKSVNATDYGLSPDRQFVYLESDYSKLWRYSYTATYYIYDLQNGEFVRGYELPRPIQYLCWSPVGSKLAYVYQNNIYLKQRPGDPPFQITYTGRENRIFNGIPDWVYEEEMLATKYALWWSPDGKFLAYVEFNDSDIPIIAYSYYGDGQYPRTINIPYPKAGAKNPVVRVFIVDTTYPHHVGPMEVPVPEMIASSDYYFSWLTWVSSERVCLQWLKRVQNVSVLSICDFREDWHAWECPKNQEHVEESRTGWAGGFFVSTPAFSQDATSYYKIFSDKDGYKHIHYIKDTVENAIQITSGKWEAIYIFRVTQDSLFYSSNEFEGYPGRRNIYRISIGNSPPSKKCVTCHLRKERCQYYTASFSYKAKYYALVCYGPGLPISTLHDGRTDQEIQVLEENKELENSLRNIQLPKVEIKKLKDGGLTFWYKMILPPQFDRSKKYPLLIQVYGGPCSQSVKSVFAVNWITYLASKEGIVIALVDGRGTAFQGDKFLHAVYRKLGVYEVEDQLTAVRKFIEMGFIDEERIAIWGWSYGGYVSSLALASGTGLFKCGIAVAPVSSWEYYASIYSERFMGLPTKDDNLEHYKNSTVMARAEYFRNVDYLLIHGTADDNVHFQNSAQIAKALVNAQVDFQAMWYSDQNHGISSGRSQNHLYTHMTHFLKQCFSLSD
Description: (§1) Enzymatic activity of human FAP (hFAP) and mouse FAP (mFAP) on the Z-GP-AMC substrate was measured at room temperature on a Hidex microplate reader by monitoring the fluorescence at an excitation wavelength of 360 nm and an emission wavelength of 465 nm. The reaction mixture contained 20 μM substrate, 20 nM FAP, assay buffer (50 mM Tris, 100 mM NaCl, 1 mM EDTA, pH 7.4) and tested compound (serial dilution from 10-6 to 10^−12) in a total volume of 50 μL.
Results with FAPI-46 obtained in the same assay is included for comparison.

human FAP (hFAP) = target: T2, human FAP (hFAP) (Homo sapiens, UniProt Q12884); assay: In vitro inhibition assay on human FAP (Z-GP-AMC substrate); assay type: biochemical; settings: 20 μM Z-GP-AMC, 20 nM FAP, pH 7.4, room temperature
T2 sequence (Q12884 26-760 limits assumed): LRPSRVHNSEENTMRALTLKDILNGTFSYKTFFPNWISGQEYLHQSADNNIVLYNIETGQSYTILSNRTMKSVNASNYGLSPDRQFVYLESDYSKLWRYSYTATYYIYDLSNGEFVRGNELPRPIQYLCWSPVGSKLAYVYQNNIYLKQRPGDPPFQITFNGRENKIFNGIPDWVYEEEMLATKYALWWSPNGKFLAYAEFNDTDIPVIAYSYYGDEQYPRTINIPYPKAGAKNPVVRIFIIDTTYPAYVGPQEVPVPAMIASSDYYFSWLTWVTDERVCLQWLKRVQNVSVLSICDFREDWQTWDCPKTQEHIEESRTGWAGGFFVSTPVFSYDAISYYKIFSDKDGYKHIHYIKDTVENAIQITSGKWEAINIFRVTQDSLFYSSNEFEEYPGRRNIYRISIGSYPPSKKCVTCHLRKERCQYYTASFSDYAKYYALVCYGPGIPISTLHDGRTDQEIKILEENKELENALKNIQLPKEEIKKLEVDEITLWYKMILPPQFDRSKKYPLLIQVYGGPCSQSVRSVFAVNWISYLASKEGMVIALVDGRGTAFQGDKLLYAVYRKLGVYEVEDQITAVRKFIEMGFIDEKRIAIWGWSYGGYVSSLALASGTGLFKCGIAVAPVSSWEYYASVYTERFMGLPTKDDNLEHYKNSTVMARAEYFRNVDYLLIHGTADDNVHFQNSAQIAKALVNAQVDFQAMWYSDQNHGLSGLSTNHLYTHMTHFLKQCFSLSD
Description: as §1

Structure (SMILES) | cell viability (U-87 cells; FAP+ U-87 cells, single dose of eFAP-18 (1 μM) compared with the parent drug DM1) [%] | accumulation in healthy tissues, NIRF imaging (in words) (U-87 tumor) | tumor uptake, NIRF imaging (in words) (U-87 tumor) | IC50 (mouse FAP (mFAP)) [nM] | viability at 1 µM (U-87 cells; Homo sapiens, U-87 MG, read-out: cell viability) [%] | IC50 (human FAP (hFAP)) [nM]
COc1cc2cc(c1Cl)N(C)C(=O)C[C@H](OC(=O)[C@H](C)N(C)C(=O)CCS)[C@]1(C)O[C@H]1[C@H](C)[C@@H]1C[C@@](O)(NC(=O)O1)[C@H](OC)/C=C/C=C(\C)C2 [DM1, Mertansine, reference compound] | 40 | – | – | – | – | –
CC1(C)C(/C=C/C2=C(Oc3ccc(S(=O)(=O)O)cc3)C(=C/C=C3/N(CCCCCC(=O)NCCCOc4cccc5c(C(=O)NCC(=O)N6CC(F)(F)C[C@H]6C#N)ccnc45)c4ccc(S(=O)(=O)O)cc4C3(C)C)/CCC2)=[N+](CCCCS(=O)(=O)[O-])c2ccc(S(=O)(=O)O)cc21 [eFAP-17, 4-(2-((E)-2-((E)-3-(2-((E)-1-(6-((3-((4-((2-((S)-2-Cyano-4,4-difluoropyrrolidin-1-yl)-2-oxoethyl)carbamoyl)quinolin-8-yl)oxy)propyl)amino)-6-oxohexyl)-3,3-dimethyl-5-sulfoindolin-2-ylidene)ethylidene)-2-(4-sulfophenoxy)cyclohex-1-en-1-yl)vinyl)-3,3-dimethyl-5-sulfo-3H-indol-1-ium-1-yl)butane-1-sulfonate] | – | low accumulation in healthy tissues | high uptake in the FAP overexpressing tumor | 5 ± 0.2 | – | –
COc1cc2cc(c1Cl)N(C)C(=O)CC(OC(=O)C(C)N(C)C(=O)CCSSCCC(=O)NCCCOc1cccc3c(C(=O)NCC(=O)N4CC(F)(F)CC4C#N)ccnc13)C1(C)OC1C(C)C1CC(O)(NC(=O)O1)C(OC)C=CC=C(C)C2 [eFAP-18, (1^4S,1^6S,3^2S,3^3S,2R,4S,10E,12E,14R)-8^6-chloro-1^4-hydroxy-8^5,14-dimethoxy-3^3,2,7,10-tetramethyl-1^2,6-dioxo-7-aza-1(6,4)-oxazinana-3(2,3)-oxirana-8(1,3)-benzenacyclotetradecaphane-10,12-dien-4-yl N-(3-((3-((3-((4-((2-((S)-2-cyano-4,4-difluoropyrrolidin-1-yl)-2-oxoethyl)carbamoyl)quinolin-8-yl)oxy)propyl)amino)-3-oxopropyl)disulfaneyl)propanoyl)-N-methyl-L-alaninate] | – | – | – | 2 ± 0.1 | ~25 | 2.6 ± 0.8
CC1(C)C(=CC=C2CCCC(C=CC3=[N+](CCCCS(=O)(=O)[O-])c4ccc(S(=O)(=O)O)cc4C3(C)C)=C2Oc2ccc(S(=O)(=O)O)cc2)N(CCCCCC(=O)NCC(O)CC(=O)NCC(O)CC(=O)NCCCOc2cccc3c(C(=O)NCC(=O)N4CC(F)(F)C[C@H]4C#N)ccnc23)c2ccc(S(=O)(=O)O)cc21 (stereo partly drawn) [eFAP-24, 2-((E)-2-((E)-3-(2-((E)-1-(6-((4-((4-((3-((4-((2-((S)-2-cyano-4,4-difluoropyrrolidin-1-yl)-2-oxoethyl)carbamoyl)quinolin-8-yl)oxy)propyl)amino)-2-hydroxy-4-oxobutyl)amino)-2-hydroxy-4-oxobutyl)amino)-6-oxohexyl)-3,3-dimethyl-5-sulfonatoindolin-2-ylidene)ethylidene)-2-(4-sulfonatophenoxy)cyclohex-1-en-1-yl)vinyl)-3,3-dimethyl-1-(4-sulfonatobutyl)-3H-indol-1-ium-5-sulfonate] | – | – | – | 2.96 ± 0.15 | – | 3.04 ± 0.18
CC1(C)C(/C=C/C2=C(Oc3ccc(S(=O)(=O)O)cc3)C(=C/C=C3/N(CCCCCC(=O)NCC(O)CC(=O)NCCCOc4cccc5c(C(=O)NCC(=O)N6CC(F)(F)C[C@H]6C#N)ccnc45)c4ccc(S(=O)(=O)O)cc4C3(C)C)/CCC2)=[N+](CCCCS(=O)(=O)[O-])c2ccc(S(=O)(=O)O)cc21 (stereo partly drawn) [eFAP-27, 4-(2-((E)-2-((E)-3-(2-((E)-1-(6-((4-((3-((4-((2-((S)-2-cyano-4,4-difluoropyrrolidin-1-yl)-2-oxoethyl)carbamoyl)quinolin-8-yl)oxy)propyl)amino)-2-hydroxy-4-oxobutyl)amino)-6-oxohexyl)-3,3-dimethyl-5-sulfoindolin-2-ylidene)ethylidene)-2-(4-sulfophenoxy)cyclohex-1-en-1-yl)vinyl)-3,3-dimethyl-5-sulfo-3H-indol-1-ium-1-yl)butane-1-sulfonate] | – | – | – | 3.72 ± 0.11 | – | 4.01 ± 0.28
